From ChEMBL document CHEMBL1141460, “Sodium channel blockers” (J Med Chem, 2007)

Experiments:
[1] = molecular target: Sodium channel protein type 2 subunit alpha (Homo sapiens, UniProt Q99250); assay: Inhibition of inactivated human Nav1.2 sodium channel
[2] = molecular target: Sodium channel protein type 5 subunit alpha (Homo sapiens, UniProt Q14524); assay: Inhibition of inactivated human Nav1.5 sodium channel
Rattus norvegicus [3] = assay: Analgesic activity in ip dosed rat by chung model of neuropathic pain; format: functional
Rattus norvegicus [4] = assay: Analgesic activity in ip dosed rat by CCI model of neuropathic pain; format: functional
Rattus norvegicus [5] = species: Rattus norvegicus; assay: Effect on locomotor activity in rat; format: functional
Rattus norvegicus [6] = species: Rattus norvegicus; assay: Effect on […] in rat by rotarod test; format: functional
[7] = molecular target: Sodium channel protein type 9 subunit alpha (Homo sapiens, UniProt Q15858); assay: Binding affinity to Nav1.7 sodium channel
[8] = molecular target: Sodium channel protein type 10 subunit alpha (Homo sapiens, UniProt Q9Y5Y9); assay: Binding affinity to Nav1.8 sodium channel

Sequence of Sodium channel protein type 9 subunit alpha (Q15858 whole entry): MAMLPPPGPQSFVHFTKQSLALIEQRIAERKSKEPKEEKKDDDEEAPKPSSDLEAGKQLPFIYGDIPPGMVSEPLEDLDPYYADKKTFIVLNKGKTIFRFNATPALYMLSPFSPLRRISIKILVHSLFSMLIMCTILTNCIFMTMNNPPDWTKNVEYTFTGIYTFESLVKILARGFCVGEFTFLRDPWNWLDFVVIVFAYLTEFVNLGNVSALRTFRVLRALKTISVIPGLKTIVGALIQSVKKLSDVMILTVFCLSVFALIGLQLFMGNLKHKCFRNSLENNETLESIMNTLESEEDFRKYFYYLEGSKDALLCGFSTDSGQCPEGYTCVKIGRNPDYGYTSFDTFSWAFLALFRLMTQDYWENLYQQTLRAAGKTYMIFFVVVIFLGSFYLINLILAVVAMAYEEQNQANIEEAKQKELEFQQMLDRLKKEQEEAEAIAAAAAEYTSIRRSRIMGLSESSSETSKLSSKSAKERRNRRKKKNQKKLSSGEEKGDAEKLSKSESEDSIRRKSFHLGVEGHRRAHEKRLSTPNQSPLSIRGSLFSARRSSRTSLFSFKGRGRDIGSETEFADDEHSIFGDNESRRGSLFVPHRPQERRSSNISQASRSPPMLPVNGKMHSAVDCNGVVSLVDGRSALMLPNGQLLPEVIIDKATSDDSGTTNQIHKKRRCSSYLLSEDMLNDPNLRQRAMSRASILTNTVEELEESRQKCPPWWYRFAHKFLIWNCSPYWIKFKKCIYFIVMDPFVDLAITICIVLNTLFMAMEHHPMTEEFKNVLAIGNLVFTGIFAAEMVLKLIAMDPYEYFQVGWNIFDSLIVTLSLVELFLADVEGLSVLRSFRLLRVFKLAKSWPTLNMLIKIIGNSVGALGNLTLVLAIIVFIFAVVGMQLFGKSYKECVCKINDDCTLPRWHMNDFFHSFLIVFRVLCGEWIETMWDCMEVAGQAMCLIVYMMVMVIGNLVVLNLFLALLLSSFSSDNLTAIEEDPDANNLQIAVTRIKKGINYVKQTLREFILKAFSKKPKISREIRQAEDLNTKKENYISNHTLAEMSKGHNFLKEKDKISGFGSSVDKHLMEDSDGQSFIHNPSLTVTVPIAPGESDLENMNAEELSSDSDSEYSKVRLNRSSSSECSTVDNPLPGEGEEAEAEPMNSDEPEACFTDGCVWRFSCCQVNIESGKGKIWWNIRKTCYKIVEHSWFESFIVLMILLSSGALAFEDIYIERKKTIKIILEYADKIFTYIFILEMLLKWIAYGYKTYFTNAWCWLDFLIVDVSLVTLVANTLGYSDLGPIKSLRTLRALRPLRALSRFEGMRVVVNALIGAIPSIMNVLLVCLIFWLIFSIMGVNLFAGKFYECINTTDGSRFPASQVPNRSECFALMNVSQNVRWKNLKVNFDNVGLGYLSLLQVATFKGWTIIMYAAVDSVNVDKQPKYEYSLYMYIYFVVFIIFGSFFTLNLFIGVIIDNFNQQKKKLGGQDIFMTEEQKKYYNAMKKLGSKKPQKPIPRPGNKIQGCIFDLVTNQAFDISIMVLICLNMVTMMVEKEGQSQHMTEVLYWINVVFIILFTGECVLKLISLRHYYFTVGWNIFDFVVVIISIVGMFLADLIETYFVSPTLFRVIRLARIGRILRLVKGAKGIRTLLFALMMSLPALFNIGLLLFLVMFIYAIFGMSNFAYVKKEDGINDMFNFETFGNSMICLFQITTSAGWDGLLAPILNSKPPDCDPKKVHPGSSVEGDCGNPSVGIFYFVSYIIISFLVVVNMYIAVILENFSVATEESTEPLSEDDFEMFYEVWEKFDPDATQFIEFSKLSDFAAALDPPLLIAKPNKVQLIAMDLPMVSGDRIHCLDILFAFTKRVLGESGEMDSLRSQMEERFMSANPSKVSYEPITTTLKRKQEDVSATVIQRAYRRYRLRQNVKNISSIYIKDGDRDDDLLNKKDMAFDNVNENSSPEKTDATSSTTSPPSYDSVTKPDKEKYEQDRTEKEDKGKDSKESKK
Sequence of Sodium channel protein type 2 subunit alpha (Q99250 whole entry): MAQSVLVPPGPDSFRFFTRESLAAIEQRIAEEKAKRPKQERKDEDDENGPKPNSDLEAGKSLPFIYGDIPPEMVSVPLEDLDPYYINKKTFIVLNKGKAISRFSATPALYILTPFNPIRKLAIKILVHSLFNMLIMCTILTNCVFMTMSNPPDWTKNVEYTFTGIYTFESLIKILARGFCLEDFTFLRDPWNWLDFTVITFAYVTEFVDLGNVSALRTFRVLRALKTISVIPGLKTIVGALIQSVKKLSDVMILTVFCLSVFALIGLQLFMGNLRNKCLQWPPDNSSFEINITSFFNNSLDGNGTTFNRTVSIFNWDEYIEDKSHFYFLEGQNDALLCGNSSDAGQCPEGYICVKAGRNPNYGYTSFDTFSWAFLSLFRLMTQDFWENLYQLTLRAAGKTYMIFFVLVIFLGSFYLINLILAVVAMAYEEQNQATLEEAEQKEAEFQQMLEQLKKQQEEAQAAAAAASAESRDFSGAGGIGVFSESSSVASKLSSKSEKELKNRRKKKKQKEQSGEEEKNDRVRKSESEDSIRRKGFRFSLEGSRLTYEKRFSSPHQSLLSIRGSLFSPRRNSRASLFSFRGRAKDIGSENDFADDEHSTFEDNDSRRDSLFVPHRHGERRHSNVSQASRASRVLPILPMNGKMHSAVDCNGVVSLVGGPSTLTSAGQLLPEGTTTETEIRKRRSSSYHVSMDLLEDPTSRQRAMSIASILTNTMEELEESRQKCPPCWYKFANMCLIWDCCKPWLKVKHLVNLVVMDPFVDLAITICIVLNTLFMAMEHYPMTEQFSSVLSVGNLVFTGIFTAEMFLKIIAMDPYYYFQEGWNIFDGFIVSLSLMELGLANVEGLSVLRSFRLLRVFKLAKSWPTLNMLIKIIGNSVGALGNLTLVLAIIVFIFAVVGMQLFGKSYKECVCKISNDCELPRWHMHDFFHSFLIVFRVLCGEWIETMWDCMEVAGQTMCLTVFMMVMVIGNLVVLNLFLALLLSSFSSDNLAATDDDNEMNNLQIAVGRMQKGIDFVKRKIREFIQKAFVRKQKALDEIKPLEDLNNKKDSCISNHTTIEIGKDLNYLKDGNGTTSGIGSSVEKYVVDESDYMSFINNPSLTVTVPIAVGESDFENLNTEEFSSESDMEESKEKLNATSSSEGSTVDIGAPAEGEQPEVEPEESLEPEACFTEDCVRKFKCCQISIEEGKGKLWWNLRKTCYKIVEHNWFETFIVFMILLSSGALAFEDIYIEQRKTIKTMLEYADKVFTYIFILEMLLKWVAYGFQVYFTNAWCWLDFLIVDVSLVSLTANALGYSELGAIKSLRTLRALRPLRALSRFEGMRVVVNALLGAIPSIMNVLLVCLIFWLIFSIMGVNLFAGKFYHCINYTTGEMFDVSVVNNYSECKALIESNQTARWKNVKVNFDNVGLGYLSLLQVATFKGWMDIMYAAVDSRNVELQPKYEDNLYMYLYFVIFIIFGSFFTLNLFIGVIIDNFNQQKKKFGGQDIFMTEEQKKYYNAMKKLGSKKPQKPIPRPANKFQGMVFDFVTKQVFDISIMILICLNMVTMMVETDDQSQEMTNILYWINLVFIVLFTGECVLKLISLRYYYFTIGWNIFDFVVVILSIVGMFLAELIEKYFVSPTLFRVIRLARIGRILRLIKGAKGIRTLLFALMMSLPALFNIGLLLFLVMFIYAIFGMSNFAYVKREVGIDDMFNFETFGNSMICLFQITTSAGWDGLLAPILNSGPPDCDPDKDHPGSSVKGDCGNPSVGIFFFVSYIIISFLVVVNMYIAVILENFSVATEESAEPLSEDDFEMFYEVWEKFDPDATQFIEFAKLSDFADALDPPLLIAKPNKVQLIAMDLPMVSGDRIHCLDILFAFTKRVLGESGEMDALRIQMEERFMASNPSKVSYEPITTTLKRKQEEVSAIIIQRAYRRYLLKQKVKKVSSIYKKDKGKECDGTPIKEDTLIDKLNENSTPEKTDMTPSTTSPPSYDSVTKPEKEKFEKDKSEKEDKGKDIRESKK

SMILES	IC50 [1] [µM]	IC50 [2] [µM]	ED50 (Rattus norvegicus [3]) [µM]	ED50 (Rattus norvegicus [4]) [µM]	ED50 (Rattus norvegicus [5]) [µM]	ED50 (Rattus norvegicus [6]) [µM]	Ki [7] [µM]	Ki [8] [µM]
COc1cc(NC(=O)c2ccc(-c3ccc(Cl)cc3)o2)cc(OC)c1	7.18	7.44	47	86	>300	>300	–	–
CN(Cc1ccc(-c2ccccc2S(N)(=O)=O)cc1)C(=O)[C@@H]1CCC[C@H]1C(=O)NCc1ccc(OC(F)(F)F)cc1	–	–	–	–	–	–	0.25	0.18
